Measurements reported in patent publication US12496304B2, “Selective glucocorticoid receptor modifiers for treating impaired skin wound healing” (AKRIBES BIOMEDICAL GMBH, priority 2019, dated 2025).
Where two headings read alike, the source gives them in different places.

What was measured:
IL-1β = IL-1β secretion into the supernatant in the fibroblast proliferation assay (ELISA); type: cell-based, human; conditions: graded concentrations
Description: (§1) Primary human dermal fibroblasts (HDF) were purchased from CELLnTEC, Bern. They were routinely grown in Dulbecco's modified Eagle's medium (DMEM) containing 10% FCS, 2 mM glutamine, and 100 U/ml penicillin/100 μg/ml streptomycin. Media, antibiotics, and glutamine were bought from Lonza. The cells were used at passage 5-15. Cells were trypsinized and seeded at 2500 cells/well in 30 μl into the inner wells of 384-well plates in the absence or presence of graded compound concentrations with or without different dilutions of sterile-filtered WE in medium. For control samples, 30 μl medium was added instead of specific stimuli. The outer wells were loaded with sterile water. The cells were incubated for 72 hours at 37° C.
(§2) At the end of the incubation period, supernatants were removed for the determination of IL-1β, and the cells were fixed with 4% paraformaldehyde (Morphisto) for 15 minutes at room temperature and washed 3 times with PBS. A control plate was fixed after the overnight adherence of the cells (day 1) to determine the starting cell number.
IL-1β levels were determined with a commercial ELISA kit. The amount of IL-1β contained in the wound exudate added to the cells was subtracted from the total IL-B in the supernatants in order to determine the cytokine secreted by the cells.

Collagen 3a = assay: mRNA expression in fibroblast cultures (qRT-PCR): collagen 3; type: cell-based, human
Description: (§3) Cells were seeded into 24-well plates and incubated with compounds in the presence or absence of wound exudates for 72 hours. Total RNA was isolated using the RNeasy Mini Kit (QIAGEN #74106) according to the manufacturer's protocol. RNA integrity and concentration for each sample was confirmed and measured with the Qubit fluorometer. Each RNA sample was then diluted to 2 ng/μl in nuclease-free doubly distilled water.
(§4) 20 ng of total RNA were reverse-transcribed into cDNA and immediately subjected to PCR amplification using the SuperScript Ill Platinum One-Step Quantitative RT-PCR System with ROX (Invitrogen #11745). qRT-PCR amplifications were performed in 20 μl reactions containing 9 μl 2× Reaction Mix with ROX, 0.4 μl SuperScript III RT/Platinum Taq Mix and 1 μl primer (final: 900 nM, Taqman Gene Expression Assay, Applied Biosystems)
(§5) The program included 30 minutes of reverse transcription at 48° C., an initial denaturation for 5 minutes at 95° C. followed by 40 cycles of denaturation at 95° C. for 15 seconds and annealing at 60° C. for 60 seconds. Reactions were set up in 96-well format PCR plates (Peqlab #732-2879) and carried out in a Mx3005P Real-Time PCR Detection System (Stratagene).
(§6) TaqMan Gene Expression Assays (Applied Biosystems) were used, which include preoptimized probe and primer sets specific for the genes being validated. The sequences and ID numbers are listed below:
(§7) The house keeping gene elongation factor 1a (EF1a) was used as a reference gene. Normalized expression was calculated using the comparative Ct (or ΔCt) method, and fold changes were derived from the 2-ΔΔCt values for each gene. Graphs were prepared using relative Ct values that were calculated by subtracting the EF1a Ct values from the corresponding Ct values for the gene being measured.

[1] = system: human dermal fibroblast (HDF) cells; assay: Fibroblast-derived matrix formation (FDM) assay, 3D fibroblast culture; type: cell-based
Description: Human dermal fibroblast (HDF) cells were seeded at 1250 cells/well on day −3 into 384-well tissue culture plates, which had been pre-coated for 1 hour at 37° C. with 0.2% gelatin solution (Sigma). When the cells reached confluence (=day 0), a matrix promoting supplement (vitamin C: 2-phospho-L-ascorbic acid trisodium salt, 100 μg/ml; Sigma) was added together with test samples containing TGF-β1 or graded concentrations of compounds −/+WE as described for the HDF proliferation assay. After 4 days, medium was replaced by fresh vitamin C—and stimulus—as well as compound-containing medium, maintaining the conditions initiated on day 0. TGF-β1 was included as a positive control to promote FDM formation. After a total incubation time of 7 to 8 days, FDM production was measured in fixed cultures via SRB staining and evaluated as described above. In some cases, the experiment was stopped and evaluated already on day 4.

Collagen 1a = assay: mRNA expression in fibroblast cultures (qRT-PCR): collagen 1; type: cell-based, human
Description: as §3, §4, §5, §6, §7

IL-8 [2] = assay: Primary human monocyte cytokine secretion assay (spontaneous IL-8); type: cell-based; conditions: 16 hours (FIG. 16B)
Description: Primary human monocytes were prepared from peripheral blood mononuclear cells (PBMC). PBMC were isolated from buffy coats obtained from the Red Cross, Vienna, using LymphoPrep (Technoclone). 30 ml of buffy concentrate was diluted 1:2 with PBS, gently underlayered with 15 ml Lymphoprep in a 50 ml Falcon tube and centrifuged for 25 minutes at 1800 rpm at 21° C. The interphase was carefully transferred to a new Falcon tube and filled up to 50 ml with ice cold PBS. After another centrifugation step (10 minutes, 1200 rpm, 4° C.), the cell pellet was washed 3 times with PBS, resuspended in RPMI medium containing 20% FCS and 10% DMSO and frozen in liquid nitrogen. Monocytes were generated from frozen aliquots using positive selection with the CD14 Beads-Kit (Miltenyi) on an autoMACS-Sorter (Miltenyi) according to the manufacturer's instructions.
Cells were seeded at 8×10^5/ml in 50 μl/well of a 384-well plate and combined cells with graded concentrations of test compounds. After 16 hours, the supernatants were transferred to fresh plates and frozen at −20° C. for IL-8 analysis, using a commercial ELISA kit.

IL-8 [3] = assay: U937 cell stimulation assay (LPS-induced IL-8); type: cell-based, human; conditions: LPS 100 ng/ml, 16 hours (FIG. 16A)
Description: The human monocytic cell line U937 (ATCC CRL 1593) was routinely grown in RPMI_1640 supplemented by 10% FCS and 2 mM glutamine, and 100 U/ml penicillin/100 μg/ml streptomycin. Cells were seeded at 4×10^5/ml in 50 μl/well of a 384-well plate and combined cells with graded concentrations of test compounds and LPS at 100 ng/ml. After 16 hours, the supernatants were transferred to fresh plates and frozen at −20° C. for IL-8 analysis, using a commercial ELISA kit.

[4] = system: primary human dermal fibroblasts (HDF); assay: Fibroblast proliferation assay (2D) in the presence of wound exudate; type: cell-based; conditions: graded concentrations
Description: as §1, §2
Total cellular protein was determined as a measure of cell number by staining the fixed cells with sulforhodamine B (SRB, Sigma). A 0.4% SRB solution in 1% acetic acid was added to the wells for 30 minutes. The wells were then washed with 1% acetic acid until the wash solution remained colorless. After drying, the dye was eluted with 10 mM Tris-HCl, pH8.5, and absorbance was measured either at 550 or 492 nm for lower and higher cell densities, respectively. The average absorbance of the sample representing the day 1 starting cell number was subtracted from the absorbance values of the WE-treated cells.
All experiments were carried out in triplicate for each sample and concentration, and means±standard deviation (SD) were used for the evaluation of the experiment. Results are expressed as percentage of control values for unstimulated cells.

glucocorticoid receptor = target: T1, glucocorticoid receptor (Homo sapiens, UniProt P04150); conditions: 45 minutes at 37° C.
T1 sequence (P04150 1-777): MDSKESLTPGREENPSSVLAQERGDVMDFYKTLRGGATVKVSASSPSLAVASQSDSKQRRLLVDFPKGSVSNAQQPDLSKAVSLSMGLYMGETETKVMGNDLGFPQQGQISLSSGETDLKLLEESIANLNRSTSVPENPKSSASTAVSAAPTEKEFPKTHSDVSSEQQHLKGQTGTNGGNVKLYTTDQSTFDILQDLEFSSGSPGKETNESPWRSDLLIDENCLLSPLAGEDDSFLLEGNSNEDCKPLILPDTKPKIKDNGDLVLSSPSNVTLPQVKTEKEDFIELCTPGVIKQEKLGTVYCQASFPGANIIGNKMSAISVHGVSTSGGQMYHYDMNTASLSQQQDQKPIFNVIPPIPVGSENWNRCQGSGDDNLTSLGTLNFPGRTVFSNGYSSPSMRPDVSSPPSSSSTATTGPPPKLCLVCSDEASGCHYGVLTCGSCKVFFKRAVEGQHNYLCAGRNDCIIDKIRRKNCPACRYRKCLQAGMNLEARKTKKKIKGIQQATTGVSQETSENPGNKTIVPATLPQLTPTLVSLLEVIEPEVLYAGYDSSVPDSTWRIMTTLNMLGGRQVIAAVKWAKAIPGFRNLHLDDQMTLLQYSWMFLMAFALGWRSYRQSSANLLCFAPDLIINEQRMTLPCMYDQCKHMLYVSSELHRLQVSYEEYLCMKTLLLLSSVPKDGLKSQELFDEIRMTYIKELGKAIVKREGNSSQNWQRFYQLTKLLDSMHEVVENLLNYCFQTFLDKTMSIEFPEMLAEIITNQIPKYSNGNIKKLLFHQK

[5] = medium in the absence of WE, 72-hour incubation

Row | localization of the glucocorticoid receptor (glucocorticoid receptor; 0.1 nM) | localization of the glucocorticoid receptor (glucocorticoid receptor; 1 nM) | localization of the glucocorticoid receptor (glucocorticoid receptor; 100 nM) | localization of the glucocorticoid receptor (glucocorticoid receptor; 10 nm) | Compound | IL-1β secretion into the supernatant (IL-1β; WE-1 (FIG. 2B, 9B)) | collagen 3 mRNA expression (Collagen 3a; [5]) | formation of fibroblast-derived matrix (3D) ([1]; WE from patient #92 (FIG. 12)) | collagen 1 mRNA expression (Collagen 1a; [5]) | spontaneous IL-8 secretion in human monocytes (IL-8 [2]) | LPS-induced IL-8 secretion in U937 cells (IL-8 [3]) | collagen 3 mRNA expression (Collagen 3a; WE-2, 1 μM, 72-hour incubation (FIG. 3B)) | formation of fibroblast-derived matrix (3D) ([1]; WE-1, graded concentrations (FIG. 4)) | collagen 1 mRNA expression (Collagen 1a; WE-2, 1 μM, 72-hour incubation (FIG. 3A)) | IL-1β secretion into the supernatant (IL-1β; WE-2 (FIG. 10B)) | IL-1β secretion into the supernatant (IL-1β; WE-3 (FIG. 11B)) | fibroblast proliferation (2D) with wound exudate ([4]; WE-1 (FIG. 2A, 9A)) | fibroblast proliferation (2D) with wound exudate ([4]; WE-2 (FIG. 10A)) | fibroblast proliferation (2D) with wound exudate ([4]; WE-3 (FIG. 11A))
1 | – | – | – | – | CCS(=O)(=O)c1cc2cc(C[C@@](O)(CC(C)(C)c3ccc(F)cc3C(N)=O)C(F)(F)F)[nH]c2cn1 [BI-3047] | much less effect on IL-1β secretion | reduction of collagen 3 mRNA with medium | did not induce matrix formation | no significant effect on collagen 1 mRNA in the presence of medium | even induced IL-8 secretion at the highest concentrations | even induced IL-8 secretion at the highest concentrations | – | – | – | – | – | – | – | –
2 | – | – | – | – | CCS(=O)(=O)c1cc2cc(C[C@](O)(CC(C)(C)c3ccc(F)cc3C(N)=O)C(F)(F)F)[nH]c2cn1 [BI-653048, (R)-2-(4-((5-(Ethylsulfonyl)-1H-pyrrolo[2,3-c]pyridin-2-yl)methyl)-5,5,5-trifluoro-4-hydroxy-2-methylpentan-2-yl)-5-fluorobenzamide] | inhibited IL-1β secretion at the same concentrations | reduction of collagen 3 mRNA with medium | – | no significant effect on collagen 1 mRNA in the presence of medium | inhibited both LPS-induced and spontaneous IL-8 secretion | inhibited both LPS-induced and spontaneous IL-8 secretion | induced mRNA expression of both collagens 1 and 3 in the presence of wound exudate | effective in inducing matrix formation in the presence of wound exudate | induced mRNA expression of both collagens 1 and 3 in the presence of wound exudate | – | – | – | – | –
3 | N/C | N | N | N | CC(C)(C[C@@](O)(Cc1cc2ccncc2[nH]1)C(F)(F)F)c1cc(F)ccc1O [HY14234] | inhibited IL-1β secretion at the same concentrations | – | found to be active | – | inhibited both LPS-induced and spontaneous IL-8 secretion | inhibited both LPS-induced and spontaneous IL-8 secretion | – | – | – | inhibition of IL-1β secretion was negligible | inhibited IL-1β secretion at the same concentrations | dose-dependent partial reversion of the wound exudate (WE)-induced inhibition of fibroblast proliferation | dose-dependently reversed inhibition of wound exudate (WE)-induced fibroblast proliferation | dose-dependently reversed inhibition of wound exudate (WE)-induced fibroblast proliferation
